Data: publication PMC6122928 (The Journal of General Physiology, 2018)
Values belong to the compound of their own block, whether it stands above or below them.

Tests used:
[1] = biological target: T1, xTMEM16A (Xenopus laevis, UniProt B5SVV6); test: TEVC in axolotl oocytes, current evoked by uncaging IP3; type: cell-based
T1 sequence (B5SVV6 1-979): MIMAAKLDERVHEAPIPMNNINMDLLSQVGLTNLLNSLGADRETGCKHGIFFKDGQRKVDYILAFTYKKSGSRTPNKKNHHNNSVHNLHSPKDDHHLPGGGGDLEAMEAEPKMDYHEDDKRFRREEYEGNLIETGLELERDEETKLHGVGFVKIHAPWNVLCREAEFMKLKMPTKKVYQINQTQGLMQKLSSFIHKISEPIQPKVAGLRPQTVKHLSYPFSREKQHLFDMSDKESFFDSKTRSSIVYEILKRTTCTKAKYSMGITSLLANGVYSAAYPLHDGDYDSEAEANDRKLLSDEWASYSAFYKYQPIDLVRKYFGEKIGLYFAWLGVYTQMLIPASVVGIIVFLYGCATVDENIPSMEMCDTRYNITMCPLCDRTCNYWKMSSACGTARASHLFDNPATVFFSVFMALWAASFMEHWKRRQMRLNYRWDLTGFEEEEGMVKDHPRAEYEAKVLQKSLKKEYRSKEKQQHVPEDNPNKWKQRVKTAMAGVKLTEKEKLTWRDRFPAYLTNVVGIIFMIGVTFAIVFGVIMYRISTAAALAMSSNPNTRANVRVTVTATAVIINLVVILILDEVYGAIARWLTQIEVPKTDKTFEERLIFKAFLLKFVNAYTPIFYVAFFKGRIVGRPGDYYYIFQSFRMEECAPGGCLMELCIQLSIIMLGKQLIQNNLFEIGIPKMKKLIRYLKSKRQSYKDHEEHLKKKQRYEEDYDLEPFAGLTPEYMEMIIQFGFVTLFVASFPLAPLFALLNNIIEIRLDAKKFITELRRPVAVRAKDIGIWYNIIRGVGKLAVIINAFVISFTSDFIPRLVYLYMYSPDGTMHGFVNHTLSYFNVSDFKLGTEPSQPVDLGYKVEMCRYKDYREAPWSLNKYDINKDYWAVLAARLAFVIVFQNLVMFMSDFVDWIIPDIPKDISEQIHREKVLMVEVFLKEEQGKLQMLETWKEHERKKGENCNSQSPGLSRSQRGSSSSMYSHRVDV

[2] = biological target: T1, xTMEM16A; test: as above; type: cell-based; conditions: 7.5 µM; otherwise same; printed as almost 50%

- inhibition at 10 µM ([1]; read-out: % inhibition at 10 μM): 72 ± 3%
SMILES: COc1cc(Nc2ccc([N+](=O)[O-])cc2C(=O)O)cc2ccccc12 [MONNA, N-((4-methoxy)-2-naphthyl)-5-nitroanthranilic acid]

SMILES: CC(C)(C)C1CCc2c(sc(NC(=O)c3ccco3)c2C(=O)O)C1 (stereo not shown) [CaCCinh-A01, 6-(1,1-dimethylethyl)-2-[(2-furanylcarbonyl)amino]-4,5,6,7-tetrahydrobenzo[b]thiophene-3-carboxylic acid]
- % inhibition [2]: whereas T16Ainh-A01 and CaCCinh-A01 were much less effective

- inhibition at 7.5 µM ([1]; read-out: % inhibition at 7.5 μM): ~50%
SMILES: O=S(=O)(O)c1cc(N=C=S)ccc1/C=C/c1ccc(N=C=S)cc1S(=O)(=O)O [DIDS]

- inhibition at 1 µM ([1]; read-out: % inhibition at 1 μM): ~80%
SMILES: COc1ccccc1C=NNC(=O)COc1ccc(Cl)cc1C [Ani9, 2-(4-chloro-2-methylphenoxy)-N-[(2-methoxyphenyl)methylideneamino]-acetamide]
